Patent US12594265B2, “Methods and compositions for inhibition of STAT3” (Ohio State Innovation Foundation, priority 2017, dated 2026)
Entries after “also recorded” stand apart in the source; their conditions may differ. Where two headings read alike, the source gives them in different places.

Assays:
in vivo = assay: in vivo; design: species or system mice
[1] = tested on: IL-17 production in myelin-specific CD4 T cells; assay: Inhibition of IL-17 production in myelin-specific CD4 T cells (splenocytes activated with MBP Ac1-11 plus TGF-β and IL-6; flow cytometry, ELISA); format: cell-based, mice; details: 3 days; for suppression of IL-17 production in myelin-specific CD4 T cells (in words): in vitro; for suppression of IL-17 production: murine myelin-specific CD4 T cells
Description: In vitro culture of splenocytes from TCR transgenic mice. Splenocytes were prepared from naïve 5-10-wk-old Vα2.3/Vβ8.2 TCR transgenic mice and cultured in 24-well plates at […] with irradiated B10.PL splenocytes (6×10^8 cells/well). Cells were activated with of MBP Ac1-11 (10 μg/ml) and different combination of cytokines or neutralizing antibodies for cytokines to differentiate effector T helper cells. Cytokines and antibody concentrations were as follows: 0.5 ng/ml IL-12, 25 ng/ml IL-6, 1 ng/ml TGFβ1, 2 μg/ml anti-IFNγ, 1 μg/ml anti-IL-12, 2 μg/ml anti-IL-4, and 0.35 μg/ml anti-TGFβ (Yang, Weiner et al. 2009).
ELISA Assay. ELISA was performed to detect the expression of IL-17 and IFNγ in supernatant. Purified anti-mouse IL-17 primary antibody (BD bioscience) was diluted in 0.1 M NaHCO3 (pH 8.2) at 2 μg/ml while purified anti-mouse IFNγ primary antibody was diluted in 0.1M NaHCO3 (pH 9.5) at 2 μg/ml. Immunolon II plates (Dynatech Laboratories) were coated with 50 μl of primary antibodies per well and incubated overnight at 4° C. The plates were washed twice with PBS/0.05% Tween 20. The plates were blocked with 200 μl of 1% BSA in PBS per well for 2 h. The plates were washed twice with PBS/0.05% Tween 20, and 100 μl of supernatants were added in duplicate. The plates were incubated over-night at 4° C. and washed four times with PBS/0.05% Tween 20. Biotinylated rat anti-mouse secondary antibody (BD bioscience) were diluted in PBS/1% BSA, 100 μl of 1 μg/ml biotinylated antibody was added to each well, and plates were incubated at room temperature for 1 h. The plates were washed six times with PBS/0.05% Tween 20, and 100 μl avidin-peroxidase was added at 2.5 μg/ml and incubated for 30 min. The plates were washed eight times with PBS/0.05% Tween 20, and 100 μl ABTS substrate containing 0.03% H2O2 (for IL-17) or TMB substrate (for IFNγ) was added to each well. The plate was monitored for 10-20 min for color development and read at A 405. A standard curve was generated from cytokine standard, and the cytokine concentration in the samples was calculated.
Intracellular staining and flow cytometric analysis. Flow cytometric analysis was performed to evaluate the expression of surface markers and T-bet in CD4 T cells, as previously described (Yang, Weiner et al. 2009). Briefly, splenocytes were activated with antigen or αCD3/CD28 for 48 to 72 hours. Cells were then collected, washed, and resuspended in staining buffer (1% BSA in PBS). The cells were incubated with mAbs to the cell-surface markers for 30 min at 4° C. After washing twice with staining buffer, cells were fixed and permeabilized using Cytofix/Cytoperm solution for 20 min at 4° C. […] 80,000-100,000 live cell events were acquired on a FACSCanto (BD) and analyzed using FlowJo software (Tree Star, Inc.). […]

[2] = tested on: IL-23-induced IL-17 production in myelin specific CD4 T cells; assay: IL-23-induced IL-17 production in myelin-specific CD4 T cells (splenocytes of PLP-immunized SJL mice); format: cell-based; details: PLP 139-151 with IL-23 for 3 days, different concentrations
Description: Briefly, SJL mice were immunized with PLP 139-151. Splenocytes were isolated on day 20 after immunization and activated with PLP 139-151 with our without IL-23 for 3 days, in the presence of different concentrations of LLL12b or DMSO (vehicle control). […] Cells were gated on CD44+CD4+ T cells. Flow data are representative of three independent experiments. […] All error bars denote s.e.m. * * denotes p<0.01; *** denotes p<0.001; **** denotes p<0.0001.

[3] = tested on: Teff cells from MS patients; assay: CFSE-based Treg-mediated suppression assay on Teff cells from MS patients; format: cell-based, human; details: 0.25 μM for 1-2 hrs; 3 treatment-naïve MS patients
Description: FIGS. 15A-15C show representative data for LLL12b enhancement of Treg-mediated suppression on Teff cells obtained from MS patients. PBMCs were obtained from three treatment-naïve MS patients and were activated with αhCD3/CD28 plus rhTGFβ, rhIL-2 and RA for 3 days to generate Tregs. Meanwhile, PBMCs from the same three MS patients were labeled with CFSE and cultured with 0.25 μM of LLL12b or DMSO for 1-2 hours. The LLL12b or DMSO treated CFSE-CD4 T cells were then mixed with Tregs generated from the same patient at different ratios and activated with αhCD3 for 5 days. Proliferation of Teff cells was determined by flow cytometric analysis of CFSE on CD4 T cells. Cells were gated on CD4+ cells.
LLL12b enhances Treg mediated suppression on Teff cells from MS patients. Since Teff cells from MS patients are resistant to Treg mediated suppression and IL-6/STAT3 signaling promotes the resistance of Teff in MS patient, we determined whether LLL12b may enhance the Treg-mediated suppression on Teff from MS patients using CFSE-based suppression assay. PBMCs from three treatment-naïve MS patients were labeled with CFSE and cultured with 0.25 μM of LLL12b or DMSO for 1-2 hrs. Then the CFSE-CD4 T cells were mixed with iTregs differentiated from the same patient at different ratio, and activated with αhCD3 for 5 days. […]

[4] = mouse, in vivo, mice, Intravenous 2 mg/kg
[5] = mouse, in vivo, mice, Oral 8 mg/kg

For NS(=O)(=O)c1cccc2c1C(=O)c1cccc(O)c1C2=O [LLL12], the Tmax (in vivo; mouse, in vivo) was 5 to 10 min, the time until cleared (in vivo; mouse, in vivo) was ~60 min and the AUC (in vivo; mouse, in vivo, ip, 20 mg/kg) was 0.431 µM·h. It also gave an AUC(0-inf) (in vivo; mouse, in vivo, ip, 20 mg/kg) of 0.438 µM·h, a Cmax (in vivo; mouse, in vivo, ip, 20 mg/kg) of 922 nM and a Tmax (in vivo; mouse, in vivo, ip, 20 mg/kg) of 10 min. It also gave a bioavailability (in vivo; mouse, in vivo, ip, 20 mg/kg) of 29.1%, an AUC (in vivo; mouse, in vivo, iv, 5 mg/kg) of 0.373 µM·h and an AUC(0-inf) (in vivo; mouse, in vivo, iv, 5 mg/kg) of 0.377 µM·h. For the same compound, the Cmax (in vivo; mouse, in vivo, iv, 5 mg/kg) was 978 nM, the Tmax (in vivo; mouse, in vivo, iv, 5 mg/kg) was 10 min and the bioavailability (in vivo; mouse, in vivo, iv, 5 mg/kg) was 100%. The time until cleared (in vivo; mouse, in vivo, po) was “about 30 minutes”, the AUC (in vivo; mouse, in vivo, po, 20 mg/kg) was 0.0407 µM·h and the Cmax (in vivo; mouse, in vivo, po, 20 mg/kg) was 176 nM. For the same compound, the Tmax (in vivo; mouse, in vivo, po, 20 mg/kg) was 4.98 min, the bioavailability (in vivo; mouse, in vivo, po, 20 mg/kg) was 2.73% and the “suppression of IL-17 production in myelin-specific CD4 T cells (in words)” value [1] was “inhibition of IL-17”.
For CN(C)C(=O)Oc1cccc2c1C(=O)c1cccc(S(N)(=O)=O)c1C2=O [LLL12b], the “IL-23-induced IL-17 production” value [2] was “inhibition of IL-23-induced IL-17 production”, the “duration of sustained effective concentration” value (in vivo; mice, IV) was “about 4 hours” and the “duration of sustained effective concentration” value (in vivo; mice, PO) was “about 8 hours”. For the same compound, the AUC(0-t) (in vivo; [4]) was 892 ± 131 ng·h/mL, the Vd (in vivo; [4]) was 12.4 ± 2.89 L/kg and the clearance (in vivo; [4]) was 36.5 mL/min/kg. For the same compound, the half-life (in vivo; [4]) was 233 ± 27 min, the Cmax (in vivo; mouse, in vivo, mice, Intravenous 2 mg/kg, read-out: Co/Cmax) was 2880 ± 935 ng/mL and the AUC(0-t) (in vivo; [5]) was 1360 ± 396 ng·h/mL. For the same compound, the half-life (in vivo; [5]) was 461 ± 115 min, the Cmax (in vivo; mouse, in vivo, mice, Oral 8 mg/kg, read-out: Co/Cmax) was 278 ± 93 ng/mL and the Tmax (in vivo; mouse, in vivo, mice, Oral 8 mg/kg, read-out: Tmax) was 11.4 ± 5.4 min. The bioavailability (in vivo; mouse, in vivo, mice, printed in the Intravenous 2 mg/kg column, read-out: F (relative bioavailability)) was 38%, the “Treg mediated suppression on Teff cells (% suppression)” value [3] was “significantly increased” and the “suppression of IL-17 production” value ([1]; 0.25 μM) was 44%. The “suppression of IL-17 production” value ([1]; 0.50 μM) was 72% and the “suppression of IL-17 production in myelin-specific CD4 T cells (in words)” value [1] was “significantly suppress IL-17 production; also recorded: inhibits myelin-specific IL-17 production in a dose-dependent manner”.
